The compounds below were run on Salmonella typhimurium (strains TA 98, TA 100, TA 1535, TA 1537, TA 1538) (assay: Ames mutagenicity test with Salmonella typhimurium in the absence and presence of S-9-mix). Details: not given.
Format: cell-based
Experimental: The examples below will describe the invention in more detail. The mutagenicity test was carried out, following Ames, with Salmonella typhimurium (strains TA 98, TA 100, TA 1535, TA 1537, TA 1538) in the absence and presence of S-9-mix (B. N. Ames et al., Mut. Res. Vol. 31, p. 347-364 (1975)).
For `CCC(C)c1cc(-c2ccc(N)c(C(C)CC)c2)ccc1N` (stereo not shown), the Ames test was “negative”.
`CCCc1cc(-c2ccc(N)c(CCC)c2)ccc1N` [Example 4] was tested, and the Ames test was “negative”.
`CCCCc1cc(-c2ccc(N)c(CCCC)c2)ccc1N` [Example 5] was tested, and the Ames test was “negative”.
With `CC(C)Cc1cc(-c2ccc(N)c(CC(C)C)c2)ccc1N` [Example 6] the Ames test was “negative”.
In the case of `CCCOc1cc(-c2ccc(N)c(OCCC)c2)ccc1N` [Example 8], the Ames test is reported as “negative”.
For `CC(C)Oc1cc(-c2ccc(N)c(OC(C)C)c2)ccc1N` [Example 9], the Ames test was “negative”.
For `CCC(C)Oc1cc(-c2ccc(N)c(OC(C)CC)c2)ccc1N` (stereo not shown) [Example 10], the Ames test was “negative”.

Same assay, conditions: Examples 1-3
In the case of `CC(C)c1cc(-c2ccc(N)c(C(C)C)c2)ccc1N` [Example 1, 3,3-diisopropylbenzidine dichlorohydrate], the Ames mutagenicity test is reported as “negative”.
With `CC(C)COc1cc(-c2ccc(N)c(OCC(C)C)c2)ccc1N` [Example 2, 3,3'-diisobutoxybenzidine] the Ames mutagenicity test was “negative”.
In the case of `COCCOc1cc(-c2ccc(N)c(OCCOC)c2)ccc1N` [Example 3, 3,3'-di(2-methoxyethoxy)-benzidine], the Ames mutagenicity test is reported as “negative”.

From patent US4987258A, “4,4'-diaminodiphenyl compounds, process for their preparation and their use” (Hoechst Aktiengesellschaft, priority 1987, dated 1991)
